According to BindingDB's records for doi:10.1074/jbc.M511827200 (Merck Frosst Center For Therapeutic Research, 2006):

Assays:
Assay in all cases: PTP1B and TCPTP Inhibition Assay
Conditions in all cases: pH 6.3; 22 °C
[1] = biological target: T1, Tyrosine-protein phosphatase non-receptor type 1 [1-298] (Homo sapiens, UniProt P18031)
T1 construct: 1-298
T1 sequence (P18031 whole entry): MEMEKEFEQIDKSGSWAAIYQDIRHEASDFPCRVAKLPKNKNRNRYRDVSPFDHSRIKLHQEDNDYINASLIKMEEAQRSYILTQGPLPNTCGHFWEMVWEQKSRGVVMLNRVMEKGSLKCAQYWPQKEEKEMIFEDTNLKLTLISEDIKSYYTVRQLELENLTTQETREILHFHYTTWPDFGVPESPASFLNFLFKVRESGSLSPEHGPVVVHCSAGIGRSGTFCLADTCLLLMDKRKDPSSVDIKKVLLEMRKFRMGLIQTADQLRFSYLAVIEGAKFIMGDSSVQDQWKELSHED

[2] = biological target: T2, Tyrosine-protein phosphatase non-receptor type 2 (Homo sapiens, UniProt P17706)
T2 sequence (P17706 whole entry): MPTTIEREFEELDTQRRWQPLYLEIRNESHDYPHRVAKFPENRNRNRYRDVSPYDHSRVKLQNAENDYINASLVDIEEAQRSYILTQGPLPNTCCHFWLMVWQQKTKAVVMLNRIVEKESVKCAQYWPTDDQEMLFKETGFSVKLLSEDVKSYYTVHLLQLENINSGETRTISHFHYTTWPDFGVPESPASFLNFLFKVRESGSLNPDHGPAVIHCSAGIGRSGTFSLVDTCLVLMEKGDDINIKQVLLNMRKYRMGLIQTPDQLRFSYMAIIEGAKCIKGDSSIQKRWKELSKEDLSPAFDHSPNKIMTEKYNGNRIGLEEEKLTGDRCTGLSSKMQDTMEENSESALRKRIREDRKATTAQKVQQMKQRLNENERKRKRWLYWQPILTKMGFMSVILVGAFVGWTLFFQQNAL

[3] = biological target: Tyrosine-protein phosphatase non-receptor type 2 [V121L] (Homo sapiens, UniProt P17706, V121L)
Sequence of Tyrosine-protein phosphatase non-receptor type 2 [V121L] (P17706 as listed by the source V121L): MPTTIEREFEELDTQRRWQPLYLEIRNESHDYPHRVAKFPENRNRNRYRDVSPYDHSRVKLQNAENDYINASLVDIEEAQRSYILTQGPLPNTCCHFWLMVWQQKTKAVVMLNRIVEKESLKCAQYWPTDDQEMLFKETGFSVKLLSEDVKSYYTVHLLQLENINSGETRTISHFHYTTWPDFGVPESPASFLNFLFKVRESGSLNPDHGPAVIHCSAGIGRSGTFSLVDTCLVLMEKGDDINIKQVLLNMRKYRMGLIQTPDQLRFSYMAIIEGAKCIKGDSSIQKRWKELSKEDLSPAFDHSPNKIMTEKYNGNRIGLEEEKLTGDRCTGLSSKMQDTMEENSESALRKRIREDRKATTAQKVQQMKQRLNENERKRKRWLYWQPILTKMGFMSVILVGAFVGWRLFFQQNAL

[4] = biological target: Tyrosine-protein phosphatase non-receptor type 1 [L119V] (Homo sapiens, UniProt P18031, L119V)
Sequence of Tyrosine-protein phosphatase non-receptor type 1 [L119V] (P18031 1-298 L119V): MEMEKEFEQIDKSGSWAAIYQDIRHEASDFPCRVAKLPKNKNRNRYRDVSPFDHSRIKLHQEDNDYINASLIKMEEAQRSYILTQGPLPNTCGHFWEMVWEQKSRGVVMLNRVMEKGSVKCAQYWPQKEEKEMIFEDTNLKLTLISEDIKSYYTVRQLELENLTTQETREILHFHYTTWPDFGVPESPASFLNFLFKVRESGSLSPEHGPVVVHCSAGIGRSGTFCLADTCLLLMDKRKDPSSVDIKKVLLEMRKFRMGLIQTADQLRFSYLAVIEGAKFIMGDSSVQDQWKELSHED

O=P(O)(O)C(F)(F)c1ccc(CC(C/C=C/c2ccccc2)(c2ccccc2)n2nnc3ccccc32)cc1 (stereo not drawn) [({4-[(4E)-2-(1H-1,2,3-benzotriazol-1-yl)-2,5-diphenylpent-4-en-1-yl]phenyl}difluoromethyl)phosphonic acid]
IC50 [1]: 109 nM | IC50 [2]: 95 nM

COC(=O)c1ccc([C@@](C/C=C/c2ccccc2)(Cc2ccc(C(F)(F)P(=O)(O)O)cc2)n2nnc3ccccc32)cc1 [({4-[(4E)-2-(1H-1,2,3-benzotriazol-1-yl)-2-[4-(methoxycarbonyl)phenyl]-5-phenylpent-4-en-1-yl]phenyl}difluoromethyl)phosphonic acid]
IC50 [3]: 24 nM | IC50 [2]: 87 nM

Cc1noc(-c2ccc(C(C/C=C/c3ccccc3)(Cc3ccc(C(F)(F)P(=O)(O)O)cc3)C(=O)c3ccc(F)cc3)cc2)n1 (stereo not drawn) [[difluoro({4-[3-(4-fluorophenyl)-2-[4-(3-methyl-1,2,4-oxadiazol-5-yl)phenyl]-3-oxo-2-[(2E)-3-phenylprop-2-en-1-yl]propyl]phenyl})methyl]phosphonic acid]
IC50 [3]: 138 nM | IC50 [1]: 163 nM | IC50 [2]: 1600 nM | IC50 [4]: 1900 nM
